Our source for the solubility in benzene and air stability values is US10704122B2, “Simple chemical method for the separation of rare earth metals” (THE TRUSTEES OF THE UNIVERSITY OF PENNSYLVANIA, priority 2014, dated 2020).

Data set [1] in a line: Solubility in benzene quantified by 1H NMR of saturated C6D6 solutions. The class given is physicochemical. To be noted: 1H NMR against ferrocene internal standard. The procedure:
The absence of mixed-metal dimer formation prompted a search for conditions where the dimerization of Nd(TriNOx)THF could be exploited for solubility differences between the Nd and Dy species. […] These solubilities were quantified by ^1H NMR spectroscopy, where saturated C6D6 solutions of the complexes were prepared and measured against a ferrocene internal standard.

Data set [2] can be described thus: Air stability observation. The class given is physicochemical. To be noted: solid and solution states.

For “Dy[(2-(^tBuNOH)CH2—C6H4)3N]THF [Dy(TriNOx)THF]”, in data set [1], the solubility in benzene amounted to 1.2 mM.
In the case of “Nd[(2-(^tBuNOH)CH2—C6H4)3N]THF [Nd(TriNOx)THF]”, the solubility in benzene in data set [1] came out at 60 mM.
As to `CC(C)(C)N(O)c1ccccc1CN(Cc1ccccc1N(O)C(C)(C)C)Cc1ccccc1N(O)C(C)(C)C` [H3TriNOx, tris(2-tert-butylhydroxylaminato)benzylamine], in data set [2], the air stability result is “air stable in both the solid and solution states”.
